Reference: patent publication US11673866B2, “Estrogen receptor beta ligands for the prevention and treatment of multiple sclerosis (MS) and other demyelinating, inflammatory and neurodegenerative diseases” (The Board of Trustees of the University of Illinois, priority 2018, dated 2023)
Entries after “also recorded” stand apart in the source; their conditions may differ.

Assays:
Assay type in all cases: in vivo, mouse
[1] = tested on: CD45+ leukocyte, Iba1+ macrophage/microglia, GFAP+ astrocytes; test: CD45, Iba1 and GFAP staining in thoracic spinal cord dorsal column of EAE mice; design: key to CNS Cellular Inflammation: CD45 / CNS Cellular Inflammation: Iba1 / CNS Cellular Inflammation: GFAP: ‘+’ indicate marker was significantly (p ≤ 0.05) increased in treatment group relative to vehicle; ‘−’ indicates marker was significantly (p ≤ 0.05) decreased in treatment group relative to vehicle; ○: ‘o’ indicate marker did not change relative to vehicle; conditions: vs vehicle; for CD45 fluorescence intensity, spinal cord dorsal column / GFAP fluorescence intensity, spinal cord dorsal column: therapeutic treatment (postEAE)
Source text: Immunohistochemistry: Before histological staining, 40-μm free floating sections were thoroughly washed with PBS to remove residual sodium azide (Crawford et al., 2010). Sections were permeabilized with 0.3% Triton X-100 in ix PBS and 15% normal goat serum (NGS). Myelination, gliosis and immune markers were visualized by the following primary antibodies at a concentration of 1:500 unless otherwise noted: chicken anti-myelin basic protein (MBP; polyclonal, EMD Millipore, Darmstadt, Germany), chicken anti-glial fibrillary acidic protein (GFAP; EMD Millipore, Darmstadt), rat anti-cluster of differentiation 45 (CD45; clone 30-F11, BD Biosciences, San Diego, Calif.), mouse anti-ionized calcium-binding adapter molecule 1/allograft inflammatory factor-1 (Iba1/AIF1; clone 20A12.1, EMD Millipore, Darmstadt, Germany), goat anti-CXCL1 (R&D systems; Minneapolis, Minn.) at 1:250 and mouse anti-adenomatous polyposis coli (CC-1; clone CC-1, Genetex, Irvine, Calif.). Secondary staining was performed using polyclonal fluorophore-conjugated antibodies from ThermoFisher Scientific at a concentration of 1:500 unless otherwise specified: goat anti-chicken Alexa Fluor® 555 (AF555), goat anti-rabbit Alexa Fluor® 647 (AF647), donkey anti-chicken IgY Cy3 (EMD Millipore), goat anti-rat IgG AF647, goat anti-rabbit IgG Cy3 (EMD Millipore), goat anti-mouse IgG2b AF647 and rabbit anti-goat AF647. Nuclei were counter stained with 4′,6-Diamidino-2-phenylindole (DAPI, 2 ng/ml; Molecular Probes) for 10 minutes after incubation with secondary antibodies, and sections were mounted on glass slides, allowed to dry, and coverslipped with Fluoromount G mounting medium (Thermo Fisher Scientific) for imaging.
Confocal Microscopy: Thoracic spinal cord dorsal and ventral column sections, as well as CC were imaged using an Olympus BX61 confocal microscope (Olympus America Inc., Center Valley, Pa.) using a 10× and 40× objective. Z-stack projections were compiled using SlideBook 6 software (Intelligent Imaging Innovations, Inc., Denver, Colo.). Immunostaining was quantified using unbiased stereology (Crawford et al., 2010). All images (RGB) were Confocal converted to grayscale, split, and separated by color channel using imageJ version 2.2.0-rc-46/1.50 g (NIH). To avoid experimenter bias, auto-adjustment of brightness and contrast, as well as threshold of staining signal, was carried out by ImageJ. MBP^+, GFAP^+, CD45^+, Iba1^+, CC1^+, and CXCL1^+, staining intensity was measured as percent area of positive immunoreactivity within the region of interest and intensity of signal determined by ImageJ.
To assess whether IndCl analogues exert similar anti-inflammatory effects, CD45+ leukocyte, ionized calcium-binding adapter molecule 1 (Iba1)+ macrophage/microglia, and GFAP+ astrocytes were assessed in thoracic spinal cord dorsal column sections from normal and EAE mice.

EAE mice = test: EAE clinical disease score; design: key to Disability: Disease score: ‘+’ indicate marker was significantly (p ≤ 0.05) increased in treatment group relative to vehicle; ‘−’ indicates marker was significantly (p ≤ 0.05) decreased in treatment group relative to vehicle; ○: ‘o’ indicate marker did not change relative to vehicle; conditions: for Disability: Disease score / EAE clinical scores / disease progression: vs vehicle; for EAE clinical symptoms during peak disease: therapeutic 5 mg/kg/d from day 8 (postEAE); for EAE clinical scores / disease progression: therapeutic s.c. from day 8 (postEAE)
callosal axons = test: Callosal compound action potential (CAP) recordings in brain slices of EAE mice; conditions: vs vehicle; for N1 CAP amplitude / N2 CAP amplitude: therapeutic treatment (postEAE)
Method: Electrophysiology: To assess functional conductivity across the CC, electrophysiological recordings of compound action potentials (CAPs) were measured as previously described (Crawford et al., 2009; Crawford et al., 2010). Coronal brain slices were prepared from adult (3 to 4 month old) C57BL/6 female mice. Briefly, mice were deeply anesthetized under isoflurane and decapitated. The brain was removed and submerged in partially frozen “slushy” solution of slicing buffer containing (in mM): 87 NaCl, 75 sucrose 2.5 KCl, 0.5 CaCl2), 7 MgCl2, 1.25 NaH2PO4, 25 NaHCO3, 10 glucose, 1.3 ascorbic acid, 0.1 kynurenic acid, 2.0 pyruvate, and 3.5 MOPS, bubbled with 5% CO2+95% O2 (Lauderdale et al., 2015). Coronal slices (350 μm) were prepared using a Leica VT 1000S Vibratome (Bannockburn, Ill.) and subsequently incubated for 45 minutes at 35° C. in slicing buffer. Following incubation, slices were allowed to cool to room temperature for 15 minutes then transferred to ACSF […] containing (in mM): 125 NaCl, 2.5 KCl, 2.5 CaCl2), 1.3 MgCl2, 1.25 NaH2PO4, 26.0 NaHCO3, and 15 glucose, oxygenated with 5% CO2+95% O2. Slices were equilibrated in the standard ACSF for a minimum of 15-20 minutes prior to electrophysiological recordings. During electrophysiological recordings, slices were continuously perfused with oxygenated ACSF maintained at a flow rate of 1 mL/min. For recording CAPs, an Axon Digidata 1550 was used with a Multiclamp 700B Amplifier and PClamp 10.4 Software (Molecular Devices, Sunnyvale, Calif.). Continuous recordings for CC conduction experiments were low-pass filtered at 10 kHz and digitized at 200 kHz. All experiments were conducted at room temperature (24-26° C.). To stimulate the CC fiber tract, a concentric bipolar stimulating electrode (FHC Neural microTargeting Worldwide, Bowdoin, Me., USA) was placed approximately 1 mm away across from a recoding electrode (glass micropipette filled with ACSF) with a resistance of 1-3 MO. To elicit CAPs, an episodic stimulation protocol was created consisting of 8 consecutive sweeps, each 12 ms long, with a 5-sec delay between sweeps and an immediate stimulus (0.01 ms duration) after the start of each sweep (Crawford et al., 2009a). Stimulus intensity was adjusted manually using an ISO-Flex stimulator (A.M.P.I). Standardized input-output plots were generated in current clamp mode for each slice by averaging at least 4 consecutive sweeps together to […] the signal-to-noise ratio. […] Electrophysiology data were analyzed using Clampfit 10.4 software (Molecular Devices, Sunnyvale, Calif.) and OriginPro 2016 64 Bit (OriginLab Corporation)
Large white matter tracts, such as the CC, are especially vulnerable to demyelination and axonal damage in MS and EAE (Ozturk et al., 2010; Mangiardi et al., 2011). Compound action potential (CAP) recordings are a valuable technique for assessing demyelination and damage in these areas through their impact on functional conductivity (Crawford et al., 2009; Crawford et al., 2010; Moore et al., 2013).

[2] = Post (therapeutic, postEAE) treatment of EAE mice
[3] = Pre (prophylactic, preEAE) E2 treatment of EAE mice

Compound	CNS Cellular Inflammation: CD45 [1, 2]	CNS Cellular Inflammation: GFAP [1, 2]	CNS Cellular Inflammation: Iba1 [1, 2]	CD45 fluorescence intensity, spinal cord dorsal column [1]	GFAP fluorescence intensity, spinal cord dorsal column [1]	Disability: Disease score (EAE mice; [2])	EAE clinical symptoms during peak disease (EAE mice)	EAE clinical scores / disease progression (EAE mice)	Electrophysiology: N1 amplitude (callosal axons; [2])	Electrophysiology: N2 amplitude (callosal axons; [2])	N1 CAP amplitude (callosal axons)	N2 CAP amplitude (callosal axons)	N2 CAP amplitude (callosal axons; listed as Ind-o-Cl)	CNS Cellular Inflammation: CD45 [1, 3]	CNS Cellular Inflammation: GFAP [1, 3]	CNS Cellular Inflammation: Iba1 [1, 3]	Disability: Disease score (EAE mice; [3])
Oc1ccc(-n2nc3ccc(O)cc3c2Cl)c(Cl)c1 [IndCl-o-Cl, 3-chloro-2-(2-chloro-4-hydroxyphenyl)-2H-indazol-5-ol]	−	○	○	similar	similar	−	did not significantly affect EAE clinical symptoms	reversed disease progression over time; also recorded: significantly reduced	+	+	improved	increased	small but significant increase				
C[C@]12CC[C@@H]3c4ccc(O)cc4CC[C@H]3[C@@H]1CC[C@@H]2O [E2, 170 estradiol]	−	○	○			○								−	−	−	−
Oc1ccc(-n2nc3ccc(O)cc3c2Cl)cc1 [IndCl, chloroindazole]	−	○	−	similar		○	did not significantly affect EAE clinical symptoms	reversed disease progression over time	+		significant improvement; also recorded: improved						
Cc1cc(O)ccc1-n1nc2ccc(O)cc2c1Cl [IndCl-o-Me, 3-chloro-2-(4-hydroxy-2-methylphenyl)-2H-indazol-5-ol]	−	○	○	similar	similar	−	did not significantly affect EAE clinical symptoms	reversed disease progression over time; also recorded: significantly reduced	+		improved						
